Earlier results in US7247427B1, “Leptin assay” (Yeda Research and Development Co., Ltd., priority 1999, dated 2007).

Test system: cultured adipocytes
Conditions: no Angiopoietin-2 expressed in the absence of leptin

leptin: the product of the obese gene, expressed in adipocytes; regulates food intake and energy metabolism through its receptor OB-R
expression of the angiopoietin-2 gene: specifically induces the expression of the angiopoietin-2 gene
